For this test, the system named is test plant species. Nature of the test: Post-emergent herbicidal activity test (greenhouse, foliar spray, visual growth reduction). In kind it is in vivo. The conditions noted are these: post-emergence, 336 h, 140 g ai/ha, 14 days after application. On the procedure: Post-emergent Test: Seeds or nutlets of the desired test plant species were planted in Sun Gro Metro-Mix® 360 planting mixture, which typically has a pH of 6.0 to 6.8 and an organic matter content of about 30 percent, in plastic pots with a surface area of 64 square centimeters. In some aspects, to ensure good germination and healthy plants, a fungicide treatment and/or other chemical or physical treatment was applied. The plants were grown for 7-21 d in a greenhouse with an approximate 15 h photoperiod which was maintained at 23-29° C. during the day and 22-28° C. during the night. Nutrients and water were added on a regular basis and supplemental lighting was provided with overhead metal halide 1000-Watt lamps as necessary. Plants were used for testing when they reached the first or second true leaf stage. A weighed amount, determined by the highest rate to be tested, of each test compound was placed in a 25 mL glass vial and was dissolved in 4 mL of a 97:3 v/v mixture of acetone and DMSO to obtain concentrated stock solutions. […] The concentrated stock solutions obtained were diluted with 20 mL of an aqueous mixture containing acetone, water, isopropyl alcohol, DMSO, […] crop oil concentrate, and X-77 surfactant in a 48.5:39:10:1.5:1.0:0.02 v/v ratio to obtain spray solutions containing the application rate. Compound requirements are based upon a 12 mL application volume at a rate of 187 liters per hectare (L/ha). Formulated compounds were applied to the plant material with an overhead Mandel track sprayer equipped with […] nozzles calibrated to deliver 187 L/ha over an application area of 0.64 square meters at a spray height of 18 inches (43 cm) above the average plant canopy height. Control plants were sprayed in the same manner with the solvent blank. The treated plants and control plants were placed in a greenhouse as described above and watered by subirrigation to prevent wash-off of the test compounds. After 14 d, the condition of the test plants as compared with that of the nontreated and control plants was determined visually and scored on a scale of 0 to 100 percent where 0 corresponds to no injury and 100 corresponds to complete control. In the reporting of the results, Table A: Percent Growth Reduction Conversion Table was used.

[1] abbreviates: ALOMY: blackgrass (Alopecurus myosuroides), read-out: Visual Growth Reduction (%) 14 Days After Application, ALOMY.
[2] abbreviates: AMARE: redroot pigweed (Amaranthus retroflexus), read-out: Visual Growth Reduction (%) 14 Days After Application, AMARE.
Setting [3] is: AVEFA: wild oat (Avena fatua), read-out: Visual Growth Reduction (%) 14 Days After Application, AVEFA.
[4] abbreviates: CHEAL: lambsquarters (Chenopodium album), read-out: Visual Growth Reduction (%) 14 Days After Application, CHEAL.
Where [5] appears, read: CIRAR: canada thistle (Cirsium arvense), read-out: Visual Growth Reduction (%) 14 Days After Application, CIRAR.
[6] abbreviates: CYPES: yellow nutsedge (Cyperus esculentus), read-out: Visual Growth Reduction (%) 14 Days After Application, CYPES.
The mark [7] stands for this setting: DIGSA: crabgrass (Digitaria sanguinalis), read-out: Visual Growth Reduction (%) 14 Days After Application, DIGSA.
[8] abbreviates: ECHCG: barnyardgrass (Echinochloa crus-galli), read-out: Visual Growth Reduction (%) 14 Days After Application, ECHCG.
Where [9] appears, read: IPOHE: ivy-leaf morning glory (Ipomoea hederacea), read-out: Visual Growth Reduction (%) 14 Days After Application, IPOHE.
Where [10] appears, read: KCHSC: kochia (Bassia scoparia), read-out: Visual Growth Reduction (%) 14 Days After Application, KCHSC.
Setting [11] is: ORYSA: rice (Oryza sativa), read-out: Visual Growth Reduction (%) 14 Days After Application, ORYSA.
[12] abbreviates: SETFA: giant foxtail (Setaria faberi), read-out: Visual Growth Reduction (%) 14 Days After Application, SETFA.
The mark [13] stands for this setting: SORVU: grain sorghum (Sorghum vulgare), read-out: Visual Growth Reduction (%) 14 Days After Application, SORVU.
Setting [14] is: STEME: common chickweed (Stellaria media), read-out: Visual Growth Reduction (%) 14 Days After Application, STEME.
[15] abbreviates: TRZAS: wheat, spring (Triticum aestivum), read-out: Visual Growth Reduction (%) 14 Days After Application, TRZAS.

Molecules are shown by their SMILES. Where two headings read alike, the source gives them in different places.

On to `COC(=O)c1nc(-c2ccc(F)cc2Cl)ccc1Cl` [F37, Methyl 3-chloro-6-(2-chloro-4-fluorophenyl) picolinate], for which the pest or weed control at 140 g/ha reads like this: under setting [1], 0 to 29%; under setting [2], 85 to 94%; under setting [3], 0 to 29%; under setting [4], 60 to 74%; under setting [5], 0 to 29%; under setting [6], 0 to 29%. Moreover, the pest or weed control at 140 g/ha is, setting by setting: under setting [7], 0 to 29%; under setting [8], 0 to 29%; under setting [9], 75 to 84%; under setting [10], 0 to 29%; under setting [11], 0 to 29%; under setting [12], 0 to 29%. Also, the pest or weed control at 140 g/ha by setting is: under setting [13], 75 to 84%; under setting [14], 0 to 29%; under setting [15], 0 to 29%.

Regarding `COC(=O)c1nc(-c2cc(C(F)(F)F)ccc2Cl)ccc1Cl` [F38, Methyl 3-chloro-6-(2-chloro-5-(trifluoromethyl)phenyl)picolinate], the pest or weed control at 140 g/ha under setting [1] fell in the range of 0 to 29%; the pest or weed control at 140 g/ha under setting [2] was in the range of 0 to 29%; the pest or weed control at 140 g/ha under setting [3] was 0 to 29%; the pest or weed control at 140 g/ha under setting [4] lay within 0 to 29%; the pest or weed control at 140 g/ha under setting [5] lay within 0 to 29%; the pest or weed control at 140 g/ha under setting [6] fell in the range of 0 to 29%. The pest or weed control at 140 g/ha under setting [7] was in the range of 0 to 29%; the pest or weed control at 140 g/ha under setting [8] lay within 0 to 29%; the pest or weed control at 140 g/ha under setting [9] fell in the range of 0 to 29%; the pest or weed control at 140 g/ha under setting [10] was 0 to 29%; the pest or weed control at 140 g/ha under setting [11] is 0 to 29%; the pest or weed control at 140 g/ha under setting [12] was in the range of 0 to 29%. Further, the pest or weed control at 140 g/ha is 0 to 29% under setting [13], 0 to 29% under setting [14] and 0 to 29% under setting [15].

Consider `COC(=O)c1nc(-c2ccc(C(F)(F)F)cc2Cl)cc(OC)c1Cl` [F39, Methyl 3-chloro-6-(trifluoromethyl) phenyl)-4-methoxypicolinate], for which the pest or weed control at 140 g/ha was 0 to 29% under setting [1]; 0 to 29% under setting [2]; 0 to 29% under setting [3]; 0 to 29% under setting [4]; 0 to 29% under setting [5]; 0 to 29% under setting [6]. For the same molecule, the pest or weed control at 140 g/ha reads like this: under setting [7], 0 to 29%; under setting [8], 0 to 29%; under setting [9], 0 to 29%; under setting [10], 0 to 29%; under setting [11], 0 to 29%; under setting [12], 0 to 29%. In addition, the pest or weed control at 140 g/ha lay within 30 to 44% under setting [13], 0 to 29% under setting [14] and 0 to 29% under setting [15].

Consider `C#Cc1cc(-c2ccc(C(F)(F)F)cc2Cl)nc(C(=O)OC)c1Cl` [F40, methyl 3-chloro-6-(2-chloro-4-(trifluoromethyl)phenyl)-4-ethynylpicolinate], for which the pest or weed control at 140 g/ha by setting is: under setting [1], 0 to 29%; under setting [2], 0 to 29%; under setting [3], 0 to 29%; under setting [4], 0 to 29%; under setting [5], 0 to 29%; under setting [6], 0 to 29%. Further, the pest or weed control at 140 g/ha is, setting by setting: under setting [7], 0 to 29%; under setting [8], 0 to 29%; under setting [9], 30 to 44%; under setting [10], 0 to 29%; under setting [11], 0 to 29%; under setting [12], 0 to 29%. The pest or weed control at 140 g/ha under setting [13] fell in the range of 60 to 74%, the pest or weed control at 140 g/ha under setting [14] was in the range of 0 to 29% and the pest or weed control at 140 g/ha under setting [15] is 0 to 29%.

In the case of `COC(=O)c1nc(-c2ccc(C(F)(F)F)cc2Cl)cc(Br)c1Cl` [F41, methyl 4-bromo-3-chloro-6-(2-chloro-4-(trifluoromethyl)phenyl)picolinate], the pest or weed control at 140 g/ha under setting [1] is 0 to 29%; the pest or weed control at 140 g/ha under setting [2] was 0 to 29%; the pest or weed control at 140 g/ha under setting [3] lay in the range of 0 to 29%; the pest or weed control at 140 g/ha under setting [4] fell in the range of 0 to 29%; the pest or weed control at 140 g/ha under setting [5] fell in the range of 0 to 29%; the pest or weed control at 140 g/ha under setting [6] lay within 0 to 29%. The pest or weed control at 140 g/ha is 0 to 29% under setting [7]; 0 to 29% under setting [8]; 0 to 29% under setting [9]; 0 to 29% under setting [10]; 0 to 29% under setting [11]; 0 to 29% under setting [12]. Also, the pest or weed control at 140 g/ha by setting is: under setting [13], 0 to 29%; under setting [14], 0 to 29%; under setting [15], 0 to 29%.

On to `COC(=O)c1nc(-c2ccc(C(F)(F)F)cc2Cl)c(F)c(Cl)c1Cl` [F43, methyl 3,4-dichloro-6-(2-chloro-4-(trifluoromethyl)phenyl)-5-fluoropicolinate], for which the pest or weed control at 140 g/ha is 0 to 29% under setting [1]; 0 to 29% under setting [2]; 0 to 29% under setting [3]; 0 to 29% under setting [4]; 0 to 29% under setting [5]; 0 to 29% under setting [6]. Also, the pest or weed control at 140 g/ha reads like this: under setting [7], 0 to 29%; under setting [8], 0 to 29%; under setting [9], 0 to 29%; under setting [10], 0 to 29%; under setting [11], 0 to 29%; under setting [12], 0 to 29%. Besides, the pest or weed control at 140 g/ha under setting [13] was 45 to 59%, the pest or weed control at 140 g/ha under setting [14] lay in the range of 0 to 29% and the pest or weed control at 140 g/ha under setting [15] lay in the range of 0 to 29%.

Regarding `C#CCOC(=O)c1nc(-c2ccc(C(F)(F)F)cc2Cl)ccc1Cl` [F45, prop-2-yn-1-yl 3-chloro-6-(2-chloro-4-(trifluoromethyl)phenyl)picolinate], the pest or weed control at 140 g/ha under setting [1] was 30 to 44%; the pest or weed control at 140 g/ha under setting [2] was in the range of 95 to 100%; the pest or weed control at 140 g/ha under setting [3] fell in the range of 45 to 59%; the pest or weed control at 140 g/ha under setting [4] is 95 to 100%; the pest or weed control at 140 g/ha under setting [5] is 95 to 100%; the pest or weed control at 140 g/ha under setting [6] lay in the range of 0 to 29%. For the same molecule, the pest or weed control at 140 g/ha under setting [7] was 95 to 100%; the pest or weed control at 140 g/ha under setting [8] fell in the range of 30 to 44%; the pest or weed control at 140 g/ha under setting [10] was in the range of 85 to 94%; the pest or weed control at 140 g/ha under setting [11] lay within 60 to 74%; the pest or weed control at 140 g/ha under setting [12] lay within 85 to 94%; the pest or weed control at 140 g/ha under setting [13] fell in the range of 85 to 94%. Moreover, the pest or weed control at 140 g/ha was 75 to 84% under setting [14] and 85 to 94% under setting [15].

(Values after patent US20230017045A1, “PYRIDINE AND PYRIMIDINE CARBOXYLATE HERBICIDES AND METHODS OF USE THEREOF” (Dow AgroSciences LLC, priority 2017, published 2023).)
